In ChEMBL document CHEMBL5137022, “Antitumor Activity of Rutaecarpine in Human Colorectal Cancer Cells by Suppression of Wnt/β-Catenin Signaling” (J Nat Prod, 2022):

Experiments:
[1] = test system: CCD-841CoN; assay: Antiproliferative activity against human CCD-841CoN cells assessed as reduction in cell viability measured after 72 hrs by SRB assay; assay type: functional, cell-based
[2] = test system: HCT-116; assay: Antiproliferative activity against human HCT-116 cells harboring beta-catenin mutant assessed as reduction in cell viability measured after 72 hrs by SRB assay; assay type: functional, cell-based; settings: HCT-116, 72 h
[3] = test system: CCD-18Co; assay: Antiproliferative activity against human CCD-18Co cells assessed as reduction in cell viability measured after 72 hrs by SRB assay; assay type: functional, cell-based
[4] = test system: RKO; assay: Antiproliferative activity against human RKO cells harboring wild type beta-catenin assessed as reduction in cell viability measured after 72 hrs by SRB assay; assay type: functional, cell-based
[5] = test system: HCT-15; assay: Antiproliferative activity against human HCT-15 cells harboring wild type beta-catenin assessed as reduction in cell viability measured after 72 hrs by SRB assay; assay type: functional, cell-based; settings: HCT-15, 72 h
[6] = test system: LS174T; assay: Antiproliferative activity against human LS174T cells harboring beta-catenin mutant assessed as reduction in cell viability measured after 72 hrs by SRB assay; assay type: functional, cell-based
[7] = test system: SW480; assay: Antiproliferative activity against human SW480 cells harboring wild type beta-catenin assessed as reduction in cell viability measured after 72 hrs by SRB assay; assay type: functional, cell-based; settings: SW480, 72 h
[8] = Toxicity in BALB/c nude mouse xenografted with human LS174T cells assessed as effect on body weight at 10 to 30 mg/kg, ip administered 3 times per week for 21 days; assay type: organism-based; settings: in vivo, 504 h, dose 10-30 mg/kg, time 21 day

Structure (SMILES)	IC50 [1] [µM]	IC50 [2] [µM]	IC50 [3] [µM]	IC50 [4] [µM]	IC50 [5] [µM]	IC50 [6] [µM]	IC50 [7] [µM]	Activity [8]
COc1cc([C@@H]2c3cc4c(cc3[C@@H](O[C@@H]3O[C@@H]5CO[C@@H](C)O[C@H]5[C@H](O)[C@H]3O)[C@H]3COC(=O)[C@H]23)OCO4)cc(OC)c1O [ETOPOSIDE]	7.6	0.5	20.3	1.9	1.8	0.9	0.8	
CCc1c2c(nc3ccc(OC(=O)N4CCC(N5CCCCC5)CC4)cc13)-c1cc3c(c(=O)n1C2)COC(=O)[C@]3(O)CC [IRINOTECAN]	13.2	0.6	18.5	0.7	2.7	0.7	3.8	Toxic
